Results on one compound are retold here after patent publication EP1255573B1, “COMPOSITIONs comprising monoperphthalic acid useful for treating contact lens” (Novartis AG, priority 2000, dated 2001).

A short description of data set [1]: Stability of magnesium perphthalate (statement). The class given is physicochemical.
The next data set is described as follows: Solubility (statement). The class given is physicochemical.
Data set [2] has as its system L929 mammalian fibroblasts. Kind of data set: MEM toxicity test (USP standard elution cytotoxicity, trypan blue). The class given is cell-based. Set-up: key to toxicity, MEM level / MEM Result: 0: No cell lysis - Discrete intracytoplasmic granules; 1: Not more than 20% of cells round and loosely attached - occasional lysed cells present; 2: Not more than 50% of cells round - extensive cell lysis and empty areas between cells; 3: Not more than 70% of the cell layers contain rounded cells and/or lysed; 4: Nearly complete destruction of the cell layer. From the text: In testing the toxicity of compounds of the compositions disclosed in solution, an MEM test procedure is used. The MEM (Minimum Essential Medium) test procedure is employed to evaluate cytoxicity using standard USP (The United States Pharmacopeial Convention) elution assays. A description of the test procedure is provided herein.
The assay provides a means of evaluating extracts of polymeric materials under direct contact conditions. This method is appropriate for high-density materials and for dose-response evaluations.
Media Preparation: 1X MEM media is prepared by mixing 100 mL Eagle's MEM (with Earl's Salts and Sodium Bicarbonate, without L-glutamine), with 10mL serum, 1 mL-glutamine solution, and 0.5 mL antibiotic solution (L-glutamine and antibiotic solutions are purchased at correct concentrations and stored frozen at -20 °C±2). Eagle's
Before use, a 4 ml aliquot of 10X trypsin is diluted 1:9 with 36 ml of Dulbecco's Phosphate Buffered Saline (PBS) to yield a 0.25% solution. Dulbecco's Saline is available from Mediatech Cellgro. Sterile 35 mm diameter petri dishes or 6 well tissue culture plates are used. Sterile serological pipets are employed in the procedure. Sterile absorbent material (e.g. Kay-Drys or similar material) is used. L929 mammalian fibroblasts (ATCC cell line CCL1, NCTC clone 929) are employed.
Overview of Method: Cell cultures are grown to a near confluent monolayer in 6 well plates (the wells are 35mm). After the test, material is extracted under various conditions (i.e. extracting medium, time, temperature) so as to allow evaluation of extract toxicity in accordance with USP procedures. These procedures define methods to be used to extract materials for in vivo or in vitro toxicity evaluations in accordance with United States Pharmacopoeia (USP). The Sodium Chloride Injection extract is diluted with serum-supplemented cell culture medium at 25% extract concentration. Each culture is examined microscopically after 48 hours using trypan blue for the presence of morphological changes, reduction in cell density or cell lysis induced by the test material.
Cell Layer Preparation: The next step is to tryptanize cells. Next, one determines cell density using standard methods to define standard cell biology methods to be used to determine and adjust the concentration of a cell suspension, i.e. cell density. Then, an adjustment is made to yield a standard cell suspension with a density of 250,000 to 350,000 cell/mL in serum supplemented MEM for L929 cells. Seed cells are placed into 6 well plates by pipetting 2 ml of the standard cell suspension into each well. […]
Exposure to Test Extracts: Exposure to test extracts is determined examining a representative prepared cell culture plate using the microscope to observe the cell monolayer for correct confluency. […]

On to `O.O.O.O.O.O.O=C([O-])c1ccccc1C(=O)O[O-].[Mg+2]` [magnesium perphthalate, magnesium monoperoxyphthalate hexahydrate], for which the stability entry in data set [1] (in aqueous solution) is listed as “not stable”; in data set [1] (in solid form) it was “stable”. Moreover, in “Solubility (statement)”, the solubility entry was “freely soluble”. Further, the “toxicity, MEM Test Result level” value in data set [2] (concentrations below 0.5%, generally) was 1 (Not more than 20% of cells round and loosely attached - occasional lysed cells present). In addition, in data set [2] (concentrations of 0.5% and above, with and without saline), the “toxicity, MEM level” value is 4. Further, in data set [2] (concentrations of about 0.25% and below in a chloride or other halide-containing solution), the toxicity result is on record as “not toxic”. The “MEM Result” value in data set [2] (some test results at below 0.5% magnesium perphthalate) was determined as 0.
